From patent US6090787A, “Antithrombotic agents” (Eli Lilly and Company, priority 1999, dated 2000)
Square brackets hold non-standard residues; d marks the D form. Peptide text beside a SMILES is read from it. dPip = O=C(O)[C@H]1CCCCN1; Sar = CNCC(=O)O

How the values were obtained:
Human plasmin = target: T1, Human plasmin (Homo sapiens, UniProt P00747); experiment: Fibrinolytic protease selectivity, Kass, plasmin chromogenic assay; assay type: biochemical; conditions: apparent association constant
T1 construct: Human plasmin is purchased from Boehringer Mannheim; purchased Boehringer Mannheim, Indianapolis, Indiana
T1 sequence (P00747 581-810 limits assumed): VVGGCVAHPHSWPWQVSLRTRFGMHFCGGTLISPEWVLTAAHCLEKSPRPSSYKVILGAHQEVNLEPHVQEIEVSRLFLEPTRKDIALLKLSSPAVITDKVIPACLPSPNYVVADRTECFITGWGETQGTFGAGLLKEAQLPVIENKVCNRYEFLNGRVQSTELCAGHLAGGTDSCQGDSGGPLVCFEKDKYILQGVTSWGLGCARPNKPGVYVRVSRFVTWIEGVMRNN
T1 sequence (P00747 97-580 partner limits assumed): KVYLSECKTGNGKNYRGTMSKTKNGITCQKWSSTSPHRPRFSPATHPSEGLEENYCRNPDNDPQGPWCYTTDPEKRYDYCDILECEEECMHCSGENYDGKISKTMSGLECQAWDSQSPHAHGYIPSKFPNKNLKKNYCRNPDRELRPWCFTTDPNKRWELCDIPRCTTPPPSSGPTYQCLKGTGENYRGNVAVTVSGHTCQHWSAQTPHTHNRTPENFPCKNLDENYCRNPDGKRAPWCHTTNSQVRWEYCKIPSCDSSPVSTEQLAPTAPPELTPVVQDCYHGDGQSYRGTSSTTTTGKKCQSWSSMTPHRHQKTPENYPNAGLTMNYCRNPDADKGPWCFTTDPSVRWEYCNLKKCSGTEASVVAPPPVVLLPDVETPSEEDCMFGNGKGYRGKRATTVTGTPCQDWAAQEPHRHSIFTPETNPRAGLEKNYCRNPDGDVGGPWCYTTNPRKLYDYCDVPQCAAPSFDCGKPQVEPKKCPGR
Description: (§1) By substantially following the procedures described above for human thrombin, and using other human blood coagulation system serine proteases and proteases of the fibrinolytic system with the appropriate chromogenic substrates, identified below, selectivity of the compounds of the present invention with respect to the coagulation factor serine proteases and with respect to the fibrinolytic system serine proteases are evaluated as well as their substantial lack of interference with serine proteases of the fibrinolytic system. Thrombin inhibitors preferably should spare fibrinolysis induced by urokinase, tissue plasminogen activator (t-PA) and streptokinase. This would be important to the therapeutic use of such agents as an adjunct to streptokinase, t-PA or urokinase thrombolytic therapy and to the use of such agents as an endogenous fibrinolysis-sparing (with respect to t-PA and urokinase) antithrombotic agent. In addition to the lack of interference with the amidase activity of the fibrinolytic proteases, such fibrinolytic system sparing can be studied by the use of human plasma clots and their lysis by the respective fibrinolytic plasminogen activators.
(§2) Human plasmin is purchased from Boehringer Mannheim, Indianapolis, Indiana; nt-PA is purchased as single chain activity reference from American Diagnostica, Greenwich, Conn.; modified-t-PA6 (mt-PA6) is prepared at Eli Lilly and Company by procedure known in the art (See, Burck, et al., J. Biol. Chem., 265, […] (1990). Plasmin chromogenic substrate H--D--Val--Leu--Lys--p--nitroanilide and tissue plasminogen activator (t-PA) substrate H--D--Ile--Pro--Arg--p--nitroanilide are purchased from Kabi Vitrum, Stockholm, Sweden.

human plasma = experiment: Human plasma anticoagulation, activated partial thromboplastin time (APTT); conditions: concentration required to double the APTT, linear extrapolation
Description: Dog plasma and rat plasma is obtained from conscious mixed-breed hounds (either sex, Hazelton-LRE, Kalamazoo, Mich., U.S.A.) or from anesthetized male Sprague-Dawley rats (Harlan Sprague-Dawley, Inc., Indianapolis, Ind., U.S.A.) by venipuncture into 3.8 percent citrate. Fibrinogen is prepared from in-date ACD human blood as the fraction I-2 according to previous procedures and specifications. Smith, Biochem. J., 185, 1-11 (1980); and Smith, et al., Biochemistry, 11, 2958-2967 (1972). Human fibrinogen is also purchased as 98 percent pure/plasmin free from American Diagnostica, Greenwich, Conn. Coagulation reagents ACTIN, Thromboplastin, and Human plasma are from Baxter Healthcare Corp., Dade Division, Miami, Fla. Bovine thrombin from Parke-Davis ([…], Mich.) is used for coagulation assays in plasma.
Coagulation assay procedures are as previously described. Smith, et al., Thrombosis Research, 50, 163-174 (1988). A CoAScreener coagulation instrument (American LABor, Inc.) is used for all coagulation assay measurements. The prothrombin time (PT) is measured by adding 0.05 mL saline and 0.05 mL Thromboplastin-C reagent to 0.05 mL test plasma. The activated partial thromboplastin time (APTT) is measured by incubation of 0.05 mL test plasma with 0.05 mL Actin reagent for 120 seconds followed by 0.05 mL CaCl2 (0.02 M). The thrombin time (TT) is measured by adding 0.05 mL saline and 0.05 mL thrombin (10 NIH units/mL) to 0.05 mL test plasma. The compounds of formula I are added to human or animal plasma over a wide range of concentrations to determine prolongation effects on the APTT, PT, and TT assays. Linear extrapolations are performed to estimate the concentrations required to double the clotting time for each assay.

human thrombin = target: T2, human thrombin (Homo sapiens, UniProt P00734); experiment: Inhibition of amidase activity of thrombin (Kass), chromogenic substrate; assay type: biochemical; conditions: apparent association constant, mean over a range of concentrations
T2 construct: purified human thrombin, Enzyme Research Laboratories; purchased Enzyme Research Laboratories, South Bend, Indiana
Description: The assay is carried out by mixing 50 μL buffer (0.03 M Tris, 0.15 M NaCl, pH 7.4) with 25 μL of bovine thrombin or human thrombin solution (0.21 mg/mL of thrombostat bovine thrombin, Parke-Davis, or purified human thrombin, Enzyme Research Laboratories, South Bend, Indiana, at about 8 NIH units/mL, in the same buffer) and 25 μL of test compound in a solvent (in 50% aqueous methanol, v:v). The 150 μL of an aqueous solution of the chromogenic substrate (at 0.25 mg/mL) are added and the rates of hydrolysis of the substrate are measured by monitoring the reactions at 405 nm for the release of p-nitroaniline. Standard curves are constructed by plotting free thrombin concentration against hydrolysis rate. The hydrolysis rates observed with test compounds are then converted to "free thrombin" values in the respective assays by use of the standard curves. The bound thrombin (bound to test compound) is calculated by subtracting the amount of free thrombin observed in each assay from the known initial amount of thrombin used in the assay. The amount of free inhibitor in each assay is calculated by subtracting the number of moles of bound thrombin from the number of moles of added inhibitor (test compound).
The Kass value is the hypothetical equilibrium constant for the reaction between thrombin and the test compound (I). [formula]
Kass is calculated for a range of concentrations of test compounds and the mean value is reported in units of liter per mole.

[1] = target: T3, tissue plasminogen activator (t-PA) (Homo sapiens, UniProt P00750); experiment: Fibrinolytic protease selectivity, Kass, t-PA chromogenic assay; assay type: biochemical; conditions: apparent association constant
T3 construct: purchased American Diagnostica, Greenwich, Conn
T3 sequence (P00750 36-562): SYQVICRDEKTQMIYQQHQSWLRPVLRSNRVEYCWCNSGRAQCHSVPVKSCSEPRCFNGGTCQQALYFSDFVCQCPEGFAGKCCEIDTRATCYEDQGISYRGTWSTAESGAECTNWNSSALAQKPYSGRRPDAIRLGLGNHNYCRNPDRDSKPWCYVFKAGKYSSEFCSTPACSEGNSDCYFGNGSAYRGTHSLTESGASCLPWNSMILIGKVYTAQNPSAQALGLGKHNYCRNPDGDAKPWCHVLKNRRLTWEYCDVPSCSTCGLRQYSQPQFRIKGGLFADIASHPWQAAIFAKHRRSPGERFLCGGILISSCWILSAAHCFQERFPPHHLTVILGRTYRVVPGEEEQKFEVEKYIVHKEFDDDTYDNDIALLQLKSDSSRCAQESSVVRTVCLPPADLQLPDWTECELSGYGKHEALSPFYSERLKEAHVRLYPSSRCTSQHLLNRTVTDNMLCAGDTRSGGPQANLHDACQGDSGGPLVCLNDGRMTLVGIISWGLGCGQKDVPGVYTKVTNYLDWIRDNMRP
Description: as §1, §2

Enzyme Kass Plasmin (Human plasmin) | Enzyme Kass Human Thrombin (human thrombin) | Enzyme Kass t-PA [1] | SMILES | Human Plasma Anticoagulation 2 × Clotting time APTT (human plasma)
0.031 L/mol × 10^6 | 22 L/mol × 10^6 | 0.0039 L/mol × 10^6 | CN(CC(=O)N[C@H](C=O)CCCNC(=N)N)C(=O)[C@H]1CCCCN1.Cl.Cl [Example 1, D-homoprolyl-N-methylglycyl-L-argininal dihydrochloride] (H-[dPip]-[Sar]-Arg-aldehyde) | 2,800 ng/mL
0.44 L/mol × 10^6 | 87 L/mol × 10^6 | 0.009 L/mol × 10^6 | Cl.Cl.N=C(N)NCCC[C@@H](C=O)NC(=O)CN(CCc1ccccc1)C(=O)[C@H]1CCCCN1 [Example 8, D-homoprolyl-N-(2-phenylethyl)glycyl-L-argininal dihydrochloride] | 6,600 ng/mL

SMILES | Enzyme Kass Plasmin (Human plasmin) | Enzyme Kass Human Thrombin (human thrombin) | Enzyme Kass t-PA [1] | Human Plasma Anticoagulation 2 × Clotting time APTT (human plasma)
CC(C)CCN(CC(=O)N[C@H](C=O)CCCN=C(N)N)C(=O)[C@H]1CCCCN1.Cl.Cl [Example 6, D--hPro--N(isoamyl)Gly--ArgH.2HCl] | 0.059 L/mol × 10^6 | 16 L/mol × 10^6 | 0.004 L/mol × 10^6 | 3,200 ng/mL
